Patent US7405230B2, “Phosphodiesterase 4 inhibitors, including N-substituted aniline and diphenylamine analogs” (Memory Pharmaceuticals Corporation, priority 2002, dated 2008)

Assays:
Rats [1] = experiment: Radial arm maze task in rats, an in vivo test for learning and memory (reversal of MK-801 amnesia); parameters: species or system rat (male Spraque-Dawley (Harlan)); settings: MK-801 0.1 mg/kg, i.p., compared to control (p<0.01)
Procedure: The test was performed as previously described (Zhang, H.-T., Crissman, A. M., Dorairaj, N. R., Chandler, L. J., and O'Donnell, J. M., Neuropsychopharmacology, 2000, 23, 198-204.). Five days after initial housing, rats (male Spraque-Dawley (Harlan) weighing 250 to 350 g) were placed in the eight-arm radial maze (each arm was 60×10×12 cm high; the maze was elevated 70 cm above the floor) for acclimation for two days. Rats were then placed individually in the center of the maze for 5 minutes with food pellets placed close to the food wells, and then, the next day, in the wells at the end of the arms; 2 sessions a day were conducted. Next, four randomly selected arms were then baited with one pellet of food each. The rat was restricted to the center platform (26 cm in diameter) for 15 seconds and then allowed to move freely throughout the maze until it collected all pellets of food or 10 minutes passed, whichever came first. Four parameters were recorded: 1) working memory errors, i.e., entries into baited arms that had already been visited during the same trial; 2) reference memory errors, i.e., entries into unbaited arms; 3) total arm entries; and 4) the test duration (seconds), i.e., the time spent in the collection of all the pellets in the maze. […]
(§1) All data were analyzed by analyses of variance (ANOVA); individual comparisons were made using Kewman-Keuls tests. […]

Rats [2] = experiment: Passive avoidance in rats, an in vivo test for learning and memory (reversal of MK-801 amnesia); parameters: species or system rat (Male Spraque-Dawley (Harlan)); settings: MK-801 0.1 mg/kg pretreatment, 24 hours after electric shock, compared to the vehicle (p<0.001)
Procedure: The test was performed as previously described (Zhang, H.-T., Crissman, A. M., Dorairaj, N. R., Chandler, L. J., and O'Donnell, J. M., Neuropsychopharmacology, 2000, 23, 198-204.). The apparatus (Model E10-16SC, Coulbourn Instruments, Allentown, Pa.) consisted of a two-compartment chamber with an illuminated compartment connected to a darkened compartment by a guillotine door. The floor of the darkened compartment consisted of stainless steel rods through which an electric foot-shock could be delivered from a constant current source. All experimental groups were first habituated to the apparatus the day before the start of the experiment. […] The latency for entering the darkened compartment was recorded. […] Twenty-four hours later, the rat was administered 0.1 mg/kg MK-801 or saline, 30 minutes prior to the injection of saline or test compound (dosed from […], which was 30 minutes before the retention test started. The rat was again placed in the illuminated compartment with the guillotine door open. The latency for entering the darkened compartment was recorded for up to 180 seconds, at which time the trial was terminated.
as §1

`C[C@]12N[C@H](Cc3ccccc31)c1ccccc12` [MK-801] was tested, and the “Frequencies of working and reference memory errors” value (Rats [1]) was “increased the frequencies of both working and reference memory errors” and the “Latency for entering the darkened compartment” value (Rats [2]) was “markedly reduced this latency”.
